Molecules are shown by their SMILES. Structures can show the parent of a compound that is named as a salt.

The first data set deals with T1, BEC 1 potassium channel (Homo sapiens, UniProt Q9ULD8).
T1 construct: expressed in transfected cells
T1 sequence (Q9ULD8 1-1083): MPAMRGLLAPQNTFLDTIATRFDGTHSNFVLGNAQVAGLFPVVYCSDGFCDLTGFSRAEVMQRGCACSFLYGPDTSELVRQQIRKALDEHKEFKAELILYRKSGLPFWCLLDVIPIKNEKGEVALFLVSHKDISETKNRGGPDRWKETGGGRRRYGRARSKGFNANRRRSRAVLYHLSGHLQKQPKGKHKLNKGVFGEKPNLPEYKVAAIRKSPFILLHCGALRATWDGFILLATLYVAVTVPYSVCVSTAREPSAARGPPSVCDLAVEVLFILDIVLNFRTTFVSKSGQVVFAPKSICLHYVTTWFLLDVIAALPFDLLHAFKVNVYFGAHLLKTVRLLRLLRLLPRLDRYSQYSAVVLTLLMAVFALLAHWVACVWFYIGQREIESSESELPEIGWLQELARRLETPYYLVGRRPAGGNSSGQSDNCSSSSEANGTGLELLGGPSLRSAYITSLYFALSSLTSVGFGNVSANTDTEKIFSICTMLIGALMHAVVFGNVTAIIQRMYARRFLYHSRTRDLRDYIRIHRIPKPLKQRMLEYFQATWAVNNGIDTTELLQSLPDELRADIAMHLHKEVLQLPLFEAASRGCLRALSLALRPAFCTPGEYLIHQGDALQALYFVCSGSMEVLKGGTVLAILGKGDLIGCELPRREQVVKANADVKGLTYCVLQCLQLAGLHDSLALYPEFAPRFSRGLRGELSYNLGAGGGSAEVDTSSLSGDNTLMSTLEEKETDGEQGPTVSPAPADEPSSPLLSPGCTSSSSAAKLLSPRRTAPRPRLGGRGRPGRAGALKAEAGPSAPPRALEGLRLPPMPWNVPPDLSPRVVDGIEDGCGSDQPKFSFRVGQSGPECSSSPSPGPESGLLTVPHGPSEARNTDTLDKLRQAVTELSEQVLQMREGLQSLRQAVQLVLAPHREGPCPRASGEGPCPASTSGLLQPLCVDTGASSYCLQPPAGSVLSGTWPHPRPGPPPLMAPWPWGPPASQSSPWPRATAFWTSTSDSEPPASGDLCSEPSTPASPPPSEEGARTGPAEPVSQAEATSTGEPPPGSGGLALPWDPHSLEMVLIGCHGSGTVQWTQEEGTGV
Nature of the data set: BEC 1 inhibitory activity using released amount of 86Rb ions from BEC 1-expressing cells. It is filed as cell-based. As to conditions: 86Rb ion release, BEC 1-stably expressing CHO (dhfr-deficient) cell, 100 mM KCl stimulation; read-out: BEC1 IC50. As for the experimental part: In general, the potassium channel can pass Rb^+ ion similar to K^+ ion, so that the channel activity can be measured using release of a radioisotope ^86Rb^+ as a marker. By incubating cells expressing the novel potassium channel protein together with ^86RbCl (e.g., 18 hr, 37° C.), ^86Rb^+ can be incorporated into the cells. The cells are washed with a low K^+ concentration physiological saline (e.g., 4.5 mM K^+) and then suspended in the same solution. When a high K^+ concentration solution (e.g., 100 mM in final concentration) is added to the cell suspension, membrane potential of the cell is depolarized and the potassium channel therefore is activated. As a result, the intracellular ^86Rb^+ is released into the extracellular part, thus radioactivity of the extracellular solution can be used as a marker of the channel activity. It is possible to screen a compound and a peptide capable of modifying activity of the BEC 1 potassium channel protein, by comparing the radioactivity released into the extracellular part when the high K^+ concentration solution is added in the presence and absence of each drug to be tested.
Method for Measuring BEC 1 Inhibitory Activity of Compounds Using Released Amount of ^86Rb ions as the Index
The channel activity of BEC 1 was measured in accordance with the method described in WO 99/37677, using amount of a radioisotope ^86Rb ion released from a BEC 1-expressing cell as the index. That is, when an ^86Rb ion-incorporated BEC 1-expressing cell was stimulated with 100 mM KCl, the radioactivity released from the cell was used as the channel activity of BEC 1. The ^86Rb ions were incorporated into a BEC 1-stably expressing cell by culturing the cell (3 hours, 37° C.) in the presence of ^86RbCl (0.5 μCi/ml), and the un-incorporated ^86Rb ions were removed by washing three times with HEPES-buffered saline (pH 7.4, 2.5 mM KCl). The cells were incubated with HEPES-buffered saline containing a compound to be tested at room temperature for 15 minutes and then further incubated with 100 mM KCl-containing HEPES-buffered saline (pH 7.4) containing the compound to be tested at room temperature for 5 minutes. The extracellular medium was recovered, and then the remaining cells were lysed with 0.1 N NaOH and recovered.
The Cerenkov radioactivity of the extracellular medium and cell lysate was respectively measured, and their total was used as the total radioactivity. The released amount of ^86Rb ions was expressed by the percentage of extracellular medium radioactivity based on the total radioactivity. The value obtained in the presence of the compound was used as a test value, and the value obtained in the absence of the compound as a control value and the value obtained when not stimulated with 100 mM KCl as a blank value. Inhibitory action of each compound was expressed by % inhibition, namely (control value−test value)×100/(control value−blank value), or by an IC50 value calculated from the % inhibition. As the test results of typical compounds are shown in the following Tables 2 and 3, it was confirmed that said compounds have the BEC 1 potassium channel inhibitory action.
In this connection, as the BEC 1-expressing cell, a BEC 1-stably expressing cell prepared in accordance with the method described in WO 99/37677 using a dihydrofolate reductase (dhfr)-deficient strain of a Chinese hamster ovary cell was used.
As to `CCCCCNc1nc(Nc2ccccc2)nc(Nc2ccccc2)n1` [compound 14], the IC50 stood at 390 nM.

Test system in a further data set: not given
Test: not given
Conditions: not given
On to `O=C1OCCC1CNc1nc(Nc2ccccc2)nc(Nc2ccccc2)n1` (stereo not drawn) (as salt: HCl) (hydrate or solvate) [compound 24], for which the melting point is 138 to 140 °C. The same measure, in the same setting: to `Fc1ccc(Nc2nc(NCc3ccccc3)nc(Nc3ccc(F)cc3)n2)cc1` (as salt: HCl) (hydrate or solvate) [compound 28] belongs 176 to 178 °C; to `Fc1ccc(Nc2nc(NCC3CCCO3)nc(Nc3ccc(F)cc3)n2)cc1` (stereo not drawn) (as salt: HCl) (hydrate or solvate) [compound 36], 171 to 174 °C. `CC(C)Nc1nc(Nc2ccccc2)nc(Nc2ccc(Cl)cc2)n1` (as salt: HCl) [Ex 46] came in with a melting point of 201 to 203 °C. `Cc1ccc(Nc2nc(Nc3ccccc3)nc(NC(C)C)n2)cc1` (as salt: HCl) [Ex 47] had a melting point of 194 to 195 °C.

The molecule `CC(C)Nc1nc(Nc2ccccc2)nc(Nc2ccc(C(F)(F)F)cc2)n1` (as salt: HCl) [Ex 49] showed a melting point of 198 to 200 °C. The same measure, in the same setting: under `CC(CCCC(C)(C)O)Nc1nc(Nc2ccccc2)nc(Nc2ccccc2)n1` (stereo not drawn) (as salt: HCl) [Example 742] stands 112 to 113 °C; under `Fc1ccc(Nc2nc(NCc3ccnc(F)c3)nc(Nc3ccc(F)cc3)n2)cc1` (as salt: HCl) [Example 743], 191 to 192 °C. Same read-out and setting: under `Fc1ccc(Nc2nc(NCc3ccnc(F)c3)nc(Nc3ccccc3)n2)cc1` (as salt: HCl) [Example 744] stands 175 to 177 °C; under `COCCNc1nc(Nc2ccccc2)nc(Nc2ccc(F)cc2)n1` (as salt: HCl) [Example 771], 179 to 181 °C; under `OCCNc1nc(Nc2ccccc2)nc(Nc2ccc(F)cc2)n1` (as salt: HCl) [Example 773], 209 to 211 °C. Still for that read-out and setting: to `OCCCCNc1nc(Nc2ccccc2)nc(Nc2ccc(F)cc2)n1` (as salt: HCl) [Example 775] belongs 185 to 186 °C. As to `OCCCCCNc1nc(Nc2ccccc2)nc(Nc2ccc(F)cc2)n1` (as salt: HCl) [Example 776], the melting point fell in the range of 178 to 180 °C. Still for that read-out and setting: under `OCCOCCNc1nc(Nc2ccccc2)nc(Nc2ccc(F)cc2)n1` (as salt: HCl) [Example 777] stands 141 to 142 °C; under `C[C@H](CO)Nc1nc(Nc2ccccc2)nc(Nc2ccc(F)cc2)n1` (as salt: HCl) [Example 779], 193 to 195 °C; under `CN(C)Nc1nc(Nc2ccccc2)nc(Nc2ccc(F)cc2)n1` (as salt: HCl) [Example 791], 154 to 156 °C. As to `Fc1ccc(Nc2nc(NCc3ccnc(F)c3)nc(Nc3ccc(Cl)cc3)n2)cc1` (as salt: HCl) [Example 797], the melting point lay within 214 to 215 °C. Same read-out and setting: under `COCCNc1nc(Nc2ccccc2)nc(Nc2ccc(OC)cc2)n1` (as salt: HCl) [Example 808] stands 169 to 170 °C. `C#CCNc1nc(Nc2ccccc2)nc(Nc2ccccc2)n1` (as salt: HCl) [compound 16] displayed a melting point of 195 to 197 °C. Turning to `COCCCNc1nc(Nc2ccccc2)nc(Nc2ccccc2)n1` (as salt: HCl) [compound 18], the melting point was in the range of 154 to 155 °C. `CSCCCNc1nc(Nc2ccccc2)nc(Nc2ccccc2)n1` (as salt: HCl) [compound 19] returned a melting point of 162 to 163 °C. As to `OCCCNc1nc(Nc2ccccc2)nc(Nc2ccccc2)n1` (as salt: HCl) [compound 21], the melting point lay in the range of 191 to 192 °C. Still for that read-out and setting: to `OCCOCCNc1nc(Nc2ccccc2)nc(Nc2ccccc2)n1` (as salt: HCl) [compound 23] belongs 167 to 169 °C.

`Fc1ccc(CNc2nc(Nc3ccc(F)cc3)nc(Nc3ccc(F)cc3)n2)cc1` (as salt: HCl) [compound 29] displayed a melting point of 166 to 167 °C. Turning to `Fc1ccc(Nc2nc(NCc3ccco3)nc(Nc3ccc(F)cc3)n2)cc1` (as salt: HCl) [compound 30], the melting point is 179 to 180 °C.

`Fc1ccc(Nc2nc(NCc3cccs3)nc(Nc3ccc(F)cc3)n2)cc1` (as salt: HCl) [compound 31]: the melting point was in the range of 180 to 182 °C.

`COCCNc1nc(Nc2ccc(F)cc2)nc(Nc2ccc(F)cc2)n1` (as salt: HCl) [compound 35]: the melting point is 175 to 176 °C. Take `OCCCCCNc1nc(Nc2ccc(F)cc2)nc(Nc2ccc(F)cc2)n1` (as salt: HCl) [compound 37]: the melting point is 162 to 163 °C. With `OCCOCCNc1nc(Nc2ccc(F)cc2)nc(Nc2ccc(F)cc2)n1` (as salt: HCl) [compound 38], the melting point lay within 151 to 152 °C. On the same count and under the same terms, under `COc1cccc(Nc2nc(Nc3cccc(OC)c3)nc(NC(C)C)n2)c1` (as salt: HCl) [compound 40] stands 180 to 182 °C. For the molecule `[O-][n+]1ccc(CCNc2nc(Nc3ccccc3)nc(Nc3ccccc3)n2)cc1` (as salt: salt) (hydrate or solvate) [Example 740], the melting point fell in the range of 161 to 162 °C. The same measure, in the same setting: to `c1ccc(Nc2nc(NCC3CCOCC3)nc(Nc3ccccc3)n2)cc1` (as salt: salt) (hydrate or solvate) [Example 741] belongs 191 to 193 °C. On the same count and under the same terms, under `Nc1cc(CNc2nc(Nc3ccccc3)nc(Nc3ccc(F)cc3)n2)ccn1` (as salt: salt) (hydrate or solvate) [Example 747] stands 164 to 199 °C; under `Fc1ccc(Nc2nc(NCc3ccco3)nc(Nc3ccccc3)n2)cc1` (hydrate or solvate) [Example 764], 144 to 148 °C. In turn, `OCCCNc1nc(Nc2ccccc2)nc(Nc2ccc(F)cc2)n1` (hydrate or solvate) [Example 774] had a melting point of 188 to 189 °C.

In turn, `CCN(CC)CCCC(C)Nc1nc(Nc2ccccc2)nc(Nc2ccc(F)cc2)n1` (stereo not drawn) (hydrate or solvate) [Example 794] returned a melting point of 184 to 187 °C. Take `Nc1cccc(CNc2nc(Nc3ccccc3)nc(Nc3ccc(F)cc3)n2)n1` (hydrate or solvate) [Example 819]: the melting point lay in the range of 164 to 165 °C.

The molecule `CCCCCNc1nc(Nc2ccccc2)nc(Nc2ccccc2)n1` [compound 14] registered a melting point of 78 to 81 °C.

Usually IC50 stands for the concentration needed to halve the response being measured. By melting point is commonly meant the temperature, or range, at which the solid turns liquid.

These data come from patent US7375222B2, “2,4,6-Triamino-1,3,5-triazine derivative” (Astellas Pharma Inc., priority 2002, dated 2008).
